{"source": "patent US20210361715A1", "about": "“USE OF EXOSOME DERIVED FROM MESENCHYMAL STEM CELLS CO-CULTURED WITH MELATONIN IN PREVENTION AND TREATMENT OF CHRONIC KIDNEY DISEASE” (STEM BIO CO., LTD., priority 2020, published 2021)", "key": {"miR-4516": {"system": "miR-4516", "experiment": "miRNA / miR-4516 expression by RNA microarray and qPCR in MSCs and exosomes", "type": "cell-based, human", "details": "healthy MSCs and CKD-MSCs treated with melatonin; qPCR; FIG. 4F"}, "[1]": {"system": "cellular prion protein (PrPC)", "type": "cell-based, human", "details": "healthy and CKD patient MSCs treated with melatonin; ELISA; FIGS. 4B, 4C"}}, "data": [{"smiles": "COc1ccc2[nH]cc(CCNC(C)=O)c2c1", "note": "[melatonin]", "values": [{"measurement": "expression level of miR-4516 in stem cells", "setting": "miR-4516", "result": "increase"}, {"measurement": "expression of prion proteins present in the exosomes extracted from stem cells", "setting": "[1]", "result": "increases"}]}]}
